Values quoted from earlier work in patent publication US20170259275A1, “PROCESS FOR SEPARATING AMINO AND/OR ORGANIC ACID-CONTAINING PARTICLES FROM A MIXTURE” (Sanovations B.V., priority 2014, published 2017).

Key:
[1] = 25° C., water
[2] = solid, crystalline form

Row | Aqueous Solubility [1] | Crystal Density [2] | Structure (SMILES)
1 |  | 1.499 g/mL | C[C@@H](O)[C@H](N)C(=O)O [Threonine]
2 | 8.85 g/100 g | 1.267 g/mL | CC(C)[C@H](N)C(=O)O [Valine]
3 | 3.381 g/100 g | 1.311 g/mL | CSCC[C@H](N)C(=O)O [Methionine]
4 |  | 1.403 g/mL | N[C@@H](Cc1ccc(O)cc1)C(=O)O [Tyrosine]
5 |  | 1.376 g/mL | O=C(O)[C@@H]1CCCN1 [Proline]
6 | 2.426 g/100 g |  | CC(C)C[C@H](N)C(=O)O [Leucine]
7 | 2.965 g/100 g | 1.315 g/mL | N[C@@H](Cc1ccccc1)C(=O)O [Phenylalanine]
8 |  | 1.582 g/mL | N[C@@H](CO)C(=O)O [Serine]

Further lines, the compound ahead of its results:

Row | Structure (SMILES) | Aqueous Solubility [1] | Crystal Density [2]
9 | NC(=O)C[C@H](N)C(=O)O [Asparagine] | 3.53 g/100 g | 
10 | N[C@@H](CC(=O)O)C(=O)O [Aspartic Acid] |  | 1.636 g/mL
11 | N=C(N)NCCC[C@H](N)C(=O)O [Arginine] |  | 1.325 g/mL
12 | N[C@@H](CS)C(=O)O [Cysteine] | 28 g/100 g | 1.495 g/mL
13 | N[C@@H](Cc1c[nH]c2ccccc12)C(=O)O [Tryptophan] | 1.136 g/100 g | 1.303 g/mL
14 | CC[C@H](C)[C@H](N)C(=O)O [Isoleucine] | 4.117 g/100 g | 1.201 g/mL
15 | C[C@H](N)C(=O)O [Alanine] | 16.65 g/100 g | 1.371 g/mL
16 | NCCCC[C@H](N)C(=O)O [Lysine] | 30 g/100 g | 1.237 g/mL
17 | N[C@@H](Cc1c[nH]cn1)C(=O)O [Histidine] | 4.19 g/100 g | 1.412 g/mL
18 | NCC(=O)O [Glycine] |  | 1.598 g/mL
19 | NC(=O)CC[C@H](N)C(=O)O [Glutamine] | 2.5 g/100 g | 
20 | N[C@@H](CCC(=O)O)C(=O)O [Glutamic Acid] |  | 1.566 g/mL
